Tested on: 883617-216-R-J1-PDC complex spheroid viability
Assay: Anticancer human tumor 883617-216-R-J1-PDC patient-derived bladder carcinoma cell line growth inhibition [POLQ]
Conditions: for IC50: curve of first compound; for viability, T/C: stronger effect = lower value
In short: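 Patient-derived tumour cells were co-cultured with HUVEC and mesenchymal stem cells as multicellular spheroids at 37 °C. They were treated with POLQ inhibitors (novobiocin, ART-558, RP6685) alone or combined with other agents. Top concentrations were at or near clinical Cmax (otherwise 10 microM; SN-38 at 1 microM), decreasing in half-log steps.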

[1] = second compound 0.0316 µM, first compound 0.0316 µM
[2] = second compound 0.0316 µM, first compound 0.1 µM
[3] = second compound 0.0316 µM, first compound 0.316 µM
[4] = second compound 0.0316 µM, first compound 1 µM
[5] = second compound 0.0316 µM, first compound 3.16 µM
[6] = second compound 0.0316 µM, first compound 10 µM
[7] = second compound 0.1 µM, first compound 0.0316 µM
[8] = second compound 0.1 µM, first compound 0.1 µM
[9] = second compound 0.1 µM, first compound 0.316 µM
[10] = second compound 0.1 µM, first compound 1 µM
[11] = second compound 0.1 µM, first compound 3.16 µM
[12] = second compound 0.1 µM, first compound 10 µM
[13] = second compound 0.316 µM, first compound 0.0316 µM
[14] = second compound 0.316 µM, first compound 0.1 µM
[15] = second compound 0.316 µM, first compound 0.316 µM
[16] = second compound 0.316 µM, first compound 1 µM
[17] = second compound 0.316 µM, first compound 3.16 µM
[18] = second compound 0.316 µM, first compound 10 µM
[19] = second compound 1 µM, first compound 0.0316 µM
[20] = second compound 1 µM, first compound 0.1 µM
[21] = second compound 1 µM, first compound 0.316 µM
[22] = second compound 1 µM, first compound 1 µM
[23] = second compound 1 µM, first compound 3.16 µM
[24] = second compound 1 µM, first compound 10 µM
[25] = second compound 3.16 µM, first compound 0.0316 µM
[26] = second compound 3.16 µM, first compound 0.1 µM
[27] = second compound 3.16 µM, first compound 0.316 µM
[28] = second compound 3.16 µM, first compound 1 µM
[29] = second compound 3.16 µM, first compound 3.16 µM
[30] = second compound 3.16 µM, first compound 10 µM
[31] = second compound 10 µM, first compound 0.0316 µM
[32] = second compound 10 µM, first compound 0.1 µM
[33] = second compound 10 µM, first compound 0.316 µM
[34] = second compound 10 µM, first compound 1 µM
[35] = second compound 10 µM, first compound 3.16 µM
[36] = second compound 10 µM, first compound 10 µM
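Note: spheroids exposed to compounds for seven days before readout.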
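Throughout, for viability, T/C: 100% = DMSO vehicle control viability.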

Work on `CCCS(=O)(=O)Nc1ccc(F)c(C(=O)c2c[nH]c3ncc(-c4ccc(Cl)cc4)cc23)c1F` + Cc1cccc(N(C)C(=O)C2C(O)CCN2c2nc(C)cc(C(F)(F)F)c2C#N)c1 yielded an IC50 (second compound 0.0316 µM) of over 10000 nM, an IC50 (second compound 0.1 µM) of over 10000 nM and an IC50 (second compound 0.316 µM) of over 10000 nM. It also gave an IC50 (second compound 1 µM) of over 10000 nM, an IC50 (second compound 3.16 µM) of over 10000 nM and an IC50 (second compound 10 µM) of over 10000 nM. It also gave a viability, T/C [1] of 89.5%, a viability, T/C [2] of 93.6% and a viability, T/C [3] of 99.3%. The viability, T/C [4] was 104%, the viability, T/C [5] was 83.7% and the viability, T/C [6] was 56.8%. For the same molecule, the viability, T/C [7] was 105%, the viability, T/C [8] was 94.3% and the viability, T/C [9] was 97.2%. It also gave a viability, T/C [10] of 90.4%, a viability, T/C [11] of 93.9% and a viability, T/C [12] of 55.5%. For the same molecule, the viability, T/C [13] was 86.9%, the viability, T/C [14] was 114% and the viability, T/C [15] was 98.4%. For the same molecule, the viability, T/C [16] was 87.2%, the viability, T/C [17] was 80.6% and the viability, T/C [18] was 64.3%. It also gave a viability, T/C [19] of 97.4%, a viability, T/C [20] of 91.4% and a viability, T/C [21] of 92.7%. The viability, T/C [22] was 93.8%, the viability, T/C [23] was 92.9% and the viability, T/C [24] was 51.7%. It also gave a viability, T/C [25] of 116%, a viability, T/C [26] of 97.3% and a viability, T/C [27] of 106%. It also gave a viability, T/C [28] of 108%, a viability, T/C [29] of 89.2% and a viability, T/C [30] of 55.7%. For the same molecule, the viability, T/C [31] was 98.2%, the viability, T/C [32] was 97.2% and the viability, T/C [33] was 104%. The viability, T/C [34] was 102%, the viability, T/C [35] was 100% and the viability, T/C [36] was 61.3%.

`CC1COCCN1c1cc(C2(O)CC3CCC(C2)O3)c2cnn(-c3ccn[nH]3)c2n1` (centres undefined) + Nc1ccc(C#CCN(C(=O)Cc2ncc(C(F)(F)F)cc2C(F)(F)F)c2ccc(F)cc2)nn1 gave an IC50 (second compound 0.0316 µM) of 214 nM, an IC50 (second compound 0.1 µM) of 168 nM and an IC50 (second compound 0.316 µM) of 414 nM. The IC50 (second compound 1 µM) was 175 nM, the IC50 (second compound 3.16 µM) was 218 nM and the IC50 (second compound 10 µM) was 269 nM. It also gave a viability, T/C [1] of 70.8%, a viability, T/C [2] of 50.9% and a viability, T/C [3] of 48%. For the same molecule, the viability, T/C [4] was 38.4%, the viability, T/C [5] was 35% and the viability, T/C [6] was 22.9%. It also gave a viability, T/C [7] of 75.2%, a viability, T/C [8] of 50.6% and a viability, T/C [9] of 40.9%. The viability, T/C [10] was 44.2%, the viability, T/C [11] was 34.9% and the viability, T/C [12] was 23.8%. It also gave a viability, T/C [13] of 68.8%, a viability, T/C [14] of 63.2% and a viability, T/C [15] of 47.8%. The viability, T/C [16] was 42.9%, the viability, T/C [17] was 37.5% and the viability, T/C [18] was 21.9%. It also gave a viability, T/C [19] of 60.9%, a viability, T/C [20] of 51.9% and a viability, T/C [21] of 45.1%. For the same molecule, the viability, T/C [22] was 39.9%, the viability, T/C [23] was 32.3% and the viability, T/C [24] was 20.9%. The viability, T/C [25] was 67%, the viability, T/C [26] was 60.2% and the viability, T/C [27] was 45.2%. It also gave a viability, T/C [28] of 33.8%, a viability, T/C [29] of 38.7% and a viability, T/C [30] of 26.9%. It also gave a viability, T/C [31] of 73.1%, a viability, T/C [32] of 53.1% and a viability, T/C [33] of 53.1%. For the same molecule, the viability, T/C [34] was 41.5%, the viability, T/C [35] was 39.2% and the viability, T/C [36] was 35.3%.
